Data on 29 compounds can be found in patent publication US10189828B2, “1-methylpyrazole-piperazine compounds having multimodal activity against pain” (LABORATORIOS DEL DR. ESTEVE S.A., priority 2014, dated 2019).

The first experiment deals with human σ1 receptor and human μ-opioid receptor. Nature of the experiment: μ and σ1 dual binding: human σ1 receptor radioligand assay ([3H](+)-pentazocine, transfected HEK-293 membranes) and human μ-opioid receptor radioligand assay ([3H]-DAMGO, transfected CHO-K1 membranes). The arrangement: key to μ and σ1 dual binding: +: Both Ki-μ and Ki-σ1>=500 nM; ++: One Ki<500 nM while the other Ki is >=500 nM; +++: Both Ki-μ and Ki-σ1<500 nM; ++++: Both Ki-μ and Ki-σ1<100 nM.
Settings: not given
Regarding `Cn1nccc1C(c1cccc(O)c1)N1CCN(CCc2ccccc2)CC1` (centres unmarked) [Example 29, 3-((1-methyl-1H-pyrazol-5-yl)(4-phenethylpiperazin-1-yl)methyl)phenol], the Ki is less than 0.5 µM.

Compound `Cn1nccc1C(c1ccccc1)N1CCN(CCc2ccccc2)CC1` (centres unmarked) [Example 3, 1-((1-methyl-1H-pyrazol-5-yl)(phenyl)methyl)-4-phenethylpiperazine] gave a Ki of less than 0.1 µM.

Consider `Cn1nccc1C(c1ccccc1)N1CCN(Cc2ccccc2)CC1` (centres unmarked) [Example 2, 1-benzyl-4-((1-methyl-1H-pyrazol-5-yl)(phenyl)methyl)piperazine], for which the “μ and σ1 dual binding” value is on record as “++”.

As for `Cn1nccc1C(c1ccc(F)cn1)N1CCN(CCc2ncccc2Cl)CC1` (centres unmarked) [Example 43, 1-(2-(3-chloropyridin-2-yl)ethyl)-4-((5-fluoropyridin-2-yl)(1-methyl-1H-pyrazol-5-yl)methyl)piperazine], the “μ and σ1 dual binding” value was “++”.

For the compound `Cn1nccc1C(c1ccc(F)cn1)N1CCN(CCc2ccccc2)CC1` (centres unmarked) [Example 12, 1-((5-fluoropyridin-2-yl)(1-methyl-1H-pyrazol-5-yl)methyl)-4-phenethylpiperazine], the inhibition constant (Ki) was less than 0.5 µM.

As to `Cn1nccc1C(c1ccc(Cl)cn1)N1CCN(CCc2ccccc2)CC1` (centres unmarked) [Example 18, 1-((5-chloropyridin-2-yl)(1-methyl-1H-pyrazol-5-yl)methyl)-4-phenethylpiperazine], the “μ and σ1 dual binding” value was “++”.

`Cn1nccc1C(c1cccc(C(F)(F)F)n1)N1CCN(CCc2ccccc2)CC1` (centres unmarked) [Example 10, 1-((1-methyl-1H-pyrazol-5-yl)(6-(trifluoromethyl)pyridin-2-yl)methyl)-4-phenethylpiperazine]: the “μ and σ1 dual binding” value is “++”.

`COc1cccc(C(c2ccnn2C)N2CCN(CCc3ccccc3)CC2)c1` (centres unmarked) [Example 7, 1-((3-methoxyphenyl)(1-methyl-1H-pyrazol-5-yl)methyl)-4-phenethylpiperazine] returned an inhibition constant Ki of less than 0.1 µM.

Compound `COc1ccccc1C(c1ccnn1C)N1CCN(CCc2ccccc2)CC1` (centres unmarked) [Example 8, 1-((2-methoxyphenyl)(1-methyl-1H-pyrazol-5-yl)methyl)-4-phenethylpiperazine] registered a Ki of less than 0.5 µM.

As for `Cn1nccc1C(c1cccnc1C(F)(F)F)N1CCN(CCc2ccccc2)CC1` (centres unmarked) [Example 17, 1-((1-methyl-1H-pyrazol-5-yl)(2-(trifluoromethyl)pyridin-3-yl)methyl)-4-phenethylpiperazine], the Ki was less than 0.5 µM.

The compound `Cn1nccc1C(c1ccccc1)N1CCN(CCc2cccc(F)c2)CC1` (centres unmarked) [Example 35, 1-(3-Fluorophenethyl)-4-((1-methyl-1H-pyrazol-5-yl)(phenyl)methyl)piperazine] returned an inhibitory constant (Ki) of less than 0.5 µM.

With `COc1ccc(C(c2ccnn2C)N2CCN(CCc3ccccc3)CC2)cc1` (centres unmarked) [Example 9, 1-((4-methoxyphenyl)(1-methyl-1H-pyrazol-5-yl)methyl)-4-phenethylpiperazine], the inhibitory constant (Ki) was less than 0.5 µM.

Turning to `Cn1nccc1C(c1ccccn1)N1CCN(CCc2ccccc2)CC1` (centres unmarked) [Example 4, 1-((1-methyl-1H-pyrazol-5-yl)(pyridin-2-yl)methyl)-4-phenethylpiperazine], the “μ and σ1 dual binding” value was “++”.

In the case of `Cn1nccc1C(c1ccccc1)N1CCN(CCc2ccccn2)CC1` (centres unmarked) [Example 1, 1-((1-Methyl-1H-pyrazol-5-yl)(phenyl)methyl)-4-(2-(pyridin-2-yl)ethyl)piperazine], the “μ and σ1 dual binding” value is “++”.

`Cn1nccc1C(c1ccccc1)N1CCN(CCc2cccc(O)c2)CC1` (centres unmarked) [Example 30, 3-(2-(4-((1-methyl-1H-pyrazol-5-yl)(phenyl)methyl)piperazin-1-yl)ethyl)phenol] showed a Ki of less than 0.1 µM.

For the compound `Cn1nccc1C(c1ccccc1)N1CCN(CCc2ccccc2O)CC1` (centres unmarked) [Example 28, 2-(2-(4-((1-Methyl-1H-pyrazol-5-yl)(phenyl)methyl)piperazin-1-yl)ethyl)phenol], the “μ and σ1 dual binding” value is listed as “++”.

For `Cn1nccc1C(c1ccc(F)cn1)N1CCN(CCc2ccccc2F)CC1` (centres unmarked) [Example 26, 1-(2-fluorophenethyl)-4-((5-fluoropyridin-2-yl)(1-methyl-1H-pyrazol-5-yl)methyl)piperazine], the “μ and σ1 dual binding” value was “++”.

Turning to `Cn1nccc1C(c1ccccc1)N1CCN(CCc2ncccc2Cl)CC1` (centres unmarked) [Example 41, 1-(2-(3-chloropyridin-2-yl)ethyl)-4-((1-methyl-1H-pyrazol-5-yl)(phenyl)methyl)piperazine], the “μ and σ1 dual binding” value was “++”.

Turning to `Cn1nccc1C(c1cncc(F)c1)N1CCN(CCc2ccccc2)CC1` (centres unmarked) [Example 13, 1-((5-fluoropyridin-3-yl)(1-methyl-1H-pyrazol-5-yl)methyl)-4-phenethylpiperazine], the “μ and σ1 dual binding” value was “++”.

For the compound `Cn1nccc1C(c1ccccc1)N1CCN(CC(O)c2ccccc2)CC1` (centres unmarked) [Example 39, 2-(4-((1-Methyl-1H-pyrazol-5-yl)(phenyl)methyl)piperazin-1-yl)-1-phenylethanol], the “μ and σ1 dual binding” value was “++”.

On to `Cn1nccc1C(c1ccc(C(F)(F)F)nc1)N1CCN(CCc2ccccc2)CC1` (centres unmarked) [Example 11, 1-((1-methyl-1H-pyrazol-5-yl)(6-(trifluoromethyl)pyridin-3-yl)methyl)-4-phenethylpiperazine], for which the “μ and σ1 dual binding” value is recorded as “++”.

Staying with this experiment, now noted: one combined class for Ki-μ and Ki-σ1.
As for `Cn1nccc1C(c1ccc(F)cn1)N1CCN(CCc2ccccn2)CC1` (centres unmarked) [Example 15, 1-((5-fluoropyridin-2-yl)(1-methyl-1H-pyrazol-5-yl)methyl)-4-(2-(pyridin-2-yl)ethyl)piperazine], the Ki was no less than 0.5 µM.

For `Cn1nccc1C(c1ccccc1)N1CCN(CCc2ccc(F)cn2)CC1` (centres unmarked) [Example 34, 1-(2-(5-fluoropyridin-2-yl)ethyl)-4-((1-methyl-1H-pyrazol-5-yl)(phenyl)methyl)piperazine], the Ki is no less than 0.5 µM.

With `Cn1nccc1C(c1ccccc1)N1CCN(CCc2cccc(N)n2)CC1` (centres unmarked) [Example 40, 6-(2-(4-((1-Methyl-1H-pyrazol-5-yl)(phenyl)methyl)piperazin-1-yl)ethyl)pyridin-2-amine], the Ki is no less than 0.5 µM.

Take `Cn1nccc1C(c1ccccc1)N1CCN(CCc2ncccc2F)CC1` (centres unmarked) [Example 33, 1-(2-(3-Fluoropyridin-2-yl)ethyl)-4-((1-methyl-1H-pyrazol-5-yl)(phenyl)methyl)piperazine]: the Ki was no less than 0.5 µM.

Regarding `Cn1nccc1C(c1ccccc1)N1CCN(CCc2cccc(N(S(C)(=O)=O)S(C)(=O)=O)n2)CC1` (centres unmarked) [Example 45, N-(6-(2-(4-((1-methyl-1H-pyrazol-5-yl)(phenyl)methyl)piperazin-1-yl)ethyl)pyridin-2-yl)-N-(methylsulfonyl)methanesulfonamide], the inhibition constant Ki is no less than 0.5 µM.

For the compound `Cn1nccc1C(c1ccccc1)N1CCN(CCc2csc(NC(=O)OC(C)(C)C)n2)CC1` (centres unmarked) [Example 25, tert-butyl 4-(2-(4-((1-methyl-1H-pyrazol-5-yl)(phenyl)methyl)piperazin-1-yl)ethyl)thiazol-2-ylcarbamate], the Ki is no less than 0.5 µM.

For `COc1ccccc1CCN1CCN(C(c2ccccc2)c2ccnn2C)CC1` (centres unmarked) [Example 6, 1-(2-methoxyphenethyl)-4-((1-methyl-1H-pyrazol-5-yl)(phenyl)methyl)piperazine], the Ki is no less than 0.5 µM.

For `Cn1nccc1C(c1ccccc1)N1CCN(CCc2cccc(NS(C)(=O)=O)n2)CC1` (centres unmarked) [Example 44, N-(6-(2-(4-((1-methyl-1H-pyrazol-5-yl)(phenyl)methyl)piperazin-1-yl)ethyl)pyridin-2-yl)methanesulfonamide], the inhibition constant Ki is no less than 0.5 µM.

By Ki is commonly meant the equilibrium dissociation constant of an inhibitor or competing ligand from its target.
